Reference: PubChem BioAssay AID248 (DTP/NCI, 2004)
Where “and” joins values, the source holds several entries; their conditions need not be identical. Identical values can stand only once. Inconclusive results and toxic doses are left out. No stated cut-off is given here; in the data, active means T/C of 150% or more; inactive means T/C below 125%.

System: L1210 leukemia ip in BDF1 mice, survival T/C
Experiment: NCI In Vivo Anticancer Drug Screen. Data for tumor model L1210 Leukemia (intraperitoneal) in B6D2F1 (BDF1) mice
Conditions: endpoint: mean survival time, higher = longer survival
Procedure, shortened: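 Antitumor effect is assessed in tumor-bearing animals. Survival in the compound arm is compared with a vehicle-dosed control arm and expressed as their quotient.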

[1] = dose: 50.0 mg/kg/injection, schedule: Q01DX009 (ip), vehicle: saline with Tween-80
[2] = dose: 100.0 mg/kg/injection, schedule: Q01DX009 (ip), vehicle: saline with Tween-80
[3] = dose: 200.0 mg/kg/injection, schedule: Q01DX009 (ip), vehicle: saline with Tween-80
[4] = dose: 100.0 mg/kg/injection, schedule: Q01DX001 (ip), vehicle: saline
[5] = dose: 200.0 mg/kg/injection, schedule: Q01DX001 (ip), vehicle: saline
[6] = dose: 400.0 mg/kg/injection, schedule: Q01DX001 (ip), vehicle: saline
[7] = dose: 100.0 mg/kg/injection, schedule: Q01DX009 (ip), vehicle: Klucel (hydroxypropylcellulose) (HPC)
[8] = dose: 200.0 mg/kg/injection, schedule: Q01DX009 (ip), vehicle: Klucel (hydroxypropylcellulose) (HPC)
[9] = dose: 100.0 mg/kg/injection, schedule: Q04DX003 (ip), vehicle: other
[10] = dose: 100.0 mg/kg/injection, schedule: Q04DX002 (ip), vehicle: other
[11] = dose: 200.0 mg/kg/injection, schedule: Q04DX002 (ip), vehicle: other
[12] = dose: 400.0 mg/kg/injection, schedule: Q04DX002 (ip), vehicle: other
[13] = dose: 100.0 mg/kg/injection, schedule: Q04DX003 (ip), vehicle: saline with Tween-80
[14] = dose: 200.0 mg/kg/injection, schedule: Q04DX003 (ip), vehicle: saline with Tween-80
[15] = dose: 50.0 mg/kg/injection, schedule: Q01DX001 (ip), vehicle: carboxymethylcellulose (CMC)
[16] = dose: 100.0 mg/kg/injection, schedule: Q01DX001 (ip), vehicle: carboxymethylcellulose (CMC)
[17] = dose: 200.0 mg/kg/injection, schedule: Q01DX001 (ip), vehicle: carboxymethylcellulose (CMC)
[18] = dose: 400.0 mg/kg/injection, schedule: Q01DX001 (ip), vehicle: carboxymethylcellulose (CMC)
[19] = dose: 400.0 mg/kg/injection, schedule: Q01DX009 (ip), vehicle: Klucel (hydroxypropylcellulose) (HPC)

Measured: T/C

CC(C)CCCC(C)C1CCC2C3C(=O)C=C4CC(O)CCC4(C)C3CCC12C (centres undefined)
inactive: dose: 100.0 mg/kg/injection, schedule: Q01DX009 (sc), vehicle: steriod suspending solution 106 % of control | dose: 100.0 mg/kg/injection, schedule: Q04DX003 (sc), vehicle: steriod suspending solution 100 % of control | dose: 200.0 mg/kg/injection, schedule: Q01DX009 (sc), vehicle: steriod suspending solution 96 % of control | dose: 200.0 mg/kg/injection, schedule: Q04DX003 (sc), vehicle: steriod suspending solution 115 % of control | dose: 400.0 mg/kg/injection, schedule: Q01DX009 (sc), vehicle: steriod suspending solution 98 % of control | dose: 400.0 mg/kg/injection, schedule: Q04DX003 (sc), vehicle: steriod suspending solution 107 % of control

Cc1nc(N2CCCCC2)[nH]c(=O)c1CN(C)N=O
inactive: [1] 94 % of control | [2] 94 % of control | [3] 102 % of control

CC(C)(N)CN
inactive: [4] 96 % of control | [5] 96 % of control | [6] 94 % of control

C=CCc1ccc(OC(=O)Nc2ccccc2C)c(OC)c1
inactive: [7] 96 % of control | [8] 95 % of control

CC(C)(C)c1cc(O)c(O)c(C(C)(C)C)c1
inactive: dose: 25.0 mg/kg/injection, schedule: Q04DX003 (ip), vehicle: other 104 % of control | dose: 50.0 mg/kg/injection, schedule: Q04DX003 (ip), vehicle: other 104 % of control | [9] 105 % of control

CC1CC[N-]CC1.CC1CC[N-]CC1.CC1CC[N-]CC1.CC1CC[N-]CC1.O=C([O-])C(=O)[O-].O=C([O-])C(=O)[O-].[Nb+5].[O-][O-].[O-][O-].[Pt+4]
inactive: dose: 0.25 mg/kg/injection, schedule: Q01DX009 (ip), vehicle: saline 96 % of control | dose: 0.39 mg/kg/injection, schedule: Q04DX003 (ip), vehicle: saline 110 % of control | dose: 0.5 mg/kg/injection, schedule: Q01DX009 (ip), vehicle: saline 93 % of control | dose: 0.78 mg/kg/injection, schedule: Q04DX003 (ip), vehicle: saline 110 % of control | dose: 1.0 mg/kg/injection, schedule: Q01DX009 (ip), vehicle: saline 98 % of control | dose: 1.56 mg/kg/injection, schedule: Q04DX003 (ip), vehicle: saline 101 % of control | dose: 2.0 mg/kg/injection, schedule: Q01DX009 (ip), vehicle: saline 102 % of control | dose: 3.12 mg/kg/injection, schedule: Q04DX003 (ip), vehicle: saline 96 % of control and 111 % of control

COCCOCCOC(=O)C(CO)(CC(CO)(C(C)=O)C(=O)OCCOCCOC)C(C)=O (centres undefined)
inactive: dose: 222.0 mg/kg/injection, schedule: Q01DX Z (ip), vehicle: saline 92 % of control | dose: 333.0 mg/kg/injection, schedule: Q01DX Z (ip), vehicle: saline 102 % of control | dose: 500.0 mg/kg/injection, schedule: Q01DX Z (ip), vehicle: saline 107 % of control

CC#CCOCC1CO1 (centres undefined)
inactive: dose: 100.0 mg/kg/injection, schedule: Q01DX009 (ip), vehicle: saline 100 % of control | dose: 100.0 mg/kg/injection, schedule: Q04DX003 (ip), vehicle: saline sonified 117 % of control | dose: 200.0 mg/kg/injection, schedule: Q01DX009 (ip), vehicle: saline 99 % of control | dose: 200.0 mg/kg/injection, schedule: Q04DX003 (ip), vehicle: saline sonified 119 % of control | dose: 400.0 mg/kg/injection, schedule: Q01DX009 (ip), vehicle: saline 96 % of control | dose: 400.0 mg/kg/injection, schedule: Q04DX003 (ip), vehicle: saline sonified 106 % of control

CCCSCCNC(=O)NCCSCCC
inactive: [10] 107 % of control | [11] 104 % of control | [12] 100 % of control

CCCCCCCCSCC(=O)O
inactive: [13] 103 % of control | [14] 97 % of control

O=C(Nc1ccc(C2=NCCN2)c(O)c1)c1cccc(C(=O)Nc2ccc(C3=NCCN3)c(O)c2)c1
inactive: dose: 10.0 mg/kg/injection, schedule: Q01DX Z (ip), vehicle: carboxymethylcellulose (CMC) 101 % of control | dose: 20.0 mg/kg/injection, schedule: Q01DX Z (ip), vehicle: carboxymethylcellulose (CMC) 109 % of control | dose: 40.0 mg/kg/injection, schedule: Q01DX Z (ip), vehicle: carboxymethylcellulose (CMC) 101 % of control | dose: 80.0 mg/kg/injection, schedule: Q01DX Z (ip), vehicle: carboxymethylcellulose (CMC) 101 % of control

CC(=O)Oc1cc2c(cc1OC(C)=O)C(Br)CCCC2=O (centres undefined)
inactive: dose: 100.0 mg/kg/injection, schedule: Q01DX009 (ip), vehicle: other 96 % of control | [9] 94 % of control | dose: 200.0 mg/kg/injection, schedule: Q01DX009 (ip), vehicle: other 93 % of control | dose: 200.0 mg/kg/injection, schedule: Q04DX003 (ip), vehicle: other 102 % of control | dose: 400.0 mg/kg/injection, schedule: Q01DX009 (ip), vehicle: other 104 % of control | dose: 400.0 mg/kg/injection, schedule: Q04DX003 (ip), vehicle: other 104 % of control

O=C(Nc1ccc(C(F)(F)F)cc1)Nc1cccc(Cl)c1
inactive: [15] 98 % of control | [16] 101 % of control | [17] 93 % of control | [18] 95 % of control

CC(=O)c1ccccc1NC(=O)c1ccccc1F
inactive: [7] 98 % of control | [8] 113 % of control | [19] 95 % of control

O=C(CC(CC(=O)c1ccccc1)c1ccccc1)c1ccccc1
inactive: [15] 91 % of control | [16] 94 % of control | [17] 94 % of control | [18] 94 % of control

O=[N+]([O-])c1cccc(OCCCOc2cccc([N+](=O)[O-])c2)c1
inactive: [4] 103 % of control | [5] 102 % of control | [6] 100 % of control

Oc1cccc(-c2cc3c(O)ccc(O)c3[nH]2)c1
inactive: dose: 100.0 mg/kg/injection, schedule: Q04DX002 (ip), vehicle: Klucel (hydroxypropylcellulose) (HPC) 86 % of control | dose: 200.0 mg/kg/injection, schedule: Q04DX002 (ip), vehicle: Klucel (hydroxypropylcellulose) (HPC) 99 % of control | dose: 400.0 mg/kg/injection, schedule: Q04DX002 (ip), vehicle: Klucel (hydroxypropylcellulose) (HPC) 91 % of control

CC(=O)NC(Cc1ccccc1)C(=O)O (centres undefined)
inactive: dose: 50.0 mg/kg/injection, schedule: Q04DX003 (ip), vehicle: Klucel (hydroxypropylcellulose) (HPC) 94 % of control | dose: 100.0 mg/kg/injection, schedule: Q04DX003 (ip), vehicle: Klucel (hydroxypropylcellulose) (HPC) 103 % of control | dose: 200.0 mg/kg/injection, schedule: Q04DX003 (ip), vehicle: Klucel (hydroxypropylcellulose) (HPC) 100 % of control

c1ccc2c(c1)Cc1ccccc1C2
inactive: [10] 110 % of control | [11] 94 % of control | [12] 113 % of control

C#CCCC#C
inactive: [1] 104 % of control | [2] 109 % of control | [13] 103 % of control | [3] 102 % of control | [14] 104 % of control

CCCCNC(=O)C(=O)c1ccccc1NC(C)=O
inactive: [7] 86 % of control | [8] 87 % of control | [19] 97 % of control

COc1cccc(/C=C2\CCNC2=O)c1OC
inactive: [15] 96 % of control | [16] 102 % of control | [17] 100 % of control | [18] 96 % of control
